{
  "source": "patent US20070207228A1",
  "about": "“Composition for Regulating the Trophism of Hair Follicles and the Cutaneous Production of Sebum and Use Thereof in Androgenic Alopecia” (priority 2004, published 2007)",
  "tested_on": "5-α-reductase",
  "experiment": "in vivo inhibiting activity of 5-α-reductase: plasmatic DHT concentration after oral administration",
  "parameters": "species or system Sprague-Dawley rats",
  "method": "Determination in vivo of the inhibiting activity of 5-α-reductase of an extract of Boehmeria nippononivea.\nFor the in-vivo study of the inhibition of 5-α-reductase, Sprague-Dawley (Charles River Italia) male adult rats were used having a body weight of 200-250 g.\nThe animals were stalled under standard conditions: at a temperature of 22/23° C., with 65% relative humidity, by exposing them to light cycles of 12 h light/12 h darkness.\nA standard diet in pellets (standard diet, Charles River) was administered to the rats, together with water ad libitum.\nSamples were taken from the rear-orbital plexus, immediately before the pharmacological treatment (T0) and then at 3, 6 and 8 hours after administration.\nThe administration of the substance being tested was effected orally.\nFurthermore, contemporarily with each sampling of the treated animals, samples were also taken from non-treated animals to determine the basal analyte level.\nPlasma obtained from the whole blood, treated with EDTA after centrifugation, was preserved at −20° C. until analysis.\nThe plasmatic concentrations of DHT (dihydrotestosterone) were determined by a commercial kit (DSL, Chematil, Angri, SA) after extraction of the samples.\nAll the samples of an experimental set were analyzed together to reduce the inter analytical variability.",
  "note": "Several values for one entry are separate records, joined by “and”; a condition that tells them apart may be missing. Equal entries are not always repeated.",
  "data": [
    {"molecule": "CC(C)(C)NC(=O)[C@H]1CC[C@H]2[C@@H]3CC[C@H]4NC(=O)C=C[C@]4(C)[C@H]3CC[C@]12C", "note": "[Finasteride]", "values": [
      {"measurement": "plasmatic DHT concentration, individual animals", "setting": "Finasteride 1 mg oral, 3 hrs", "result": "298.09 and 505.28 and 300.00 and 569.62 and 404.63 and 530.00"},
      {"measurement": "plasmatic DHT concentration, average", "setting": "Finasteride 1 mg oral, 3 hrs, n = 6", "result": 434.603},
      {"measurement": "plasmatic DHT concentration, individual animals", "setting": "Finasteride 1 mg oral, 6 hrs", "result": "404.13 and 565.00 and 379.59 and 592.06 and 148.51 and 420.07"},
      {"measurement": "plasmatic DHT concentration, average", "setting": "Finasteride 1 mg oral, 6 hrs, n = 6", "result": 418.227},
      {"measurement": "plasmatic DHT concentration, individual animals", "setting": "Finasteride 1 mg oral, 8 hrs", "result": "706.70 and 140.06 and 503.90 and 530.07 and 173.11 and 110.00"},
      {"measurement": "plasmatic DHT concentration, average", "setting": "Finasteride 1 mg oral, 8 hrs, n = 6", "result": 360.640},
      {"measurement": "plasmatic DHT concentration, individual animals", "setting": "Finasteride 5 mg oral, 3 hrs", "result": "217.10 and 618.58 and 151.18 and 640.97 and 924.20 and 569.38"},
      {"measurement": "plasmatic DHT concentration, average", "setting": "Finasteride 5 mg oral, 3 hrs, n = 6", "result": 520.235},
      {"measurement": "plasmatic DHT concentration, individual animals", "setting": "Finasteride 5 mg oral, 6 hrs", "result": "205.21 and 103.62 and 54.35 and 60.67 and 49.67 and 128.25 and 176.92 and 81.23"},
      {"measurement": "plasmatic DHT concentration, average", "setting": "Finasteride 5 mg oral, 6 hrs, n = 8", "result": 107.490},
      {"measurement": "plasmatic DHT concentration, individual animals", "setting": "Finasteride 5 mg oral, 8 hrs", "result": "201.56 and 108.76 and 745.40 and 576.60 and 250.90 and 300.12"},
      {"measurement": "plasmatic DHT concentration, average", "setting": "Finasteride 5 mg oral, 8 hrs, n = 6", "result": 363.890},
      {"measurement": "trend of the DHT concentration following administration", "setting": "oral, 3, 6 and 8 hours after administration", "result": "8 hours after treatment, increases returning to the basal levels"}
    ]}
  ]
}
